Laboratory results reported in ChEMBL document CHEMBL5291721, “A preclinical secondary pharmacology resource illuminates target-adverse drug reaction associations of marketed drugs” (Nat Commun, 2023).
Where a SMILES comes first, the peptide text is derived from it. [ ]: non-standard residue; d: D form. pGlu = O=C1CC[C@@H](C(=O)O)N1; Thz = O=C(O)[C@@H]1CSCN1

Tests used:
[1] = molecular target: T1, Equilibrative nucleoside transporter 1 (Homo sapiens, UniProt Q99808)
T1 sequence (Q99808 whole entry): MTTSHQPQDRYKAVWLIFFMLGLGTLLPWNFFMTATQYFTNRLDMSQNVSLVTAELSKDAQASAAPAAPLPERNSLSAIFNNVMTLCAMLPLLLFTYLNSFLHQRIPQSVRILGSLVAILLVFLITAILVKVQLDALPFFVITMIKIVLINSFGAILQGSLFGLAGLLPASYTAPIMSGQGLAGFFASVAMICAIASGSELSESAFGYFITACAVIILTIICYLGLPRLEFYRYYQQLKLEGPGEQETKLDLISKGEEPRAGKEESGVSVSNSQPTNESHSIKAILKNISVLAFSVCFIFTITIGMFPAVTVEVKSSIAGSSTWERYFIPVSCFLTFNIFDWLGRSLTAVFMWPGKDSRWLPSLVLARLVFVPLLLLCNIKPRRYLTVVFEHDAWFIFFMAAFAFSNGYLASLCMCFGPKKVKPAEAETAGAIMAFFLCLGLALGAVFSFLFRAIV

[2] = molecular target: Voltage-dependent L-type calcium channel subunit alpha-1C (Rattus norvegicus, UniProt P22002); assay type: functional
Voltage-dependent L-type calcium channel subunit alpha-1C, sequence (P22002 whole entry): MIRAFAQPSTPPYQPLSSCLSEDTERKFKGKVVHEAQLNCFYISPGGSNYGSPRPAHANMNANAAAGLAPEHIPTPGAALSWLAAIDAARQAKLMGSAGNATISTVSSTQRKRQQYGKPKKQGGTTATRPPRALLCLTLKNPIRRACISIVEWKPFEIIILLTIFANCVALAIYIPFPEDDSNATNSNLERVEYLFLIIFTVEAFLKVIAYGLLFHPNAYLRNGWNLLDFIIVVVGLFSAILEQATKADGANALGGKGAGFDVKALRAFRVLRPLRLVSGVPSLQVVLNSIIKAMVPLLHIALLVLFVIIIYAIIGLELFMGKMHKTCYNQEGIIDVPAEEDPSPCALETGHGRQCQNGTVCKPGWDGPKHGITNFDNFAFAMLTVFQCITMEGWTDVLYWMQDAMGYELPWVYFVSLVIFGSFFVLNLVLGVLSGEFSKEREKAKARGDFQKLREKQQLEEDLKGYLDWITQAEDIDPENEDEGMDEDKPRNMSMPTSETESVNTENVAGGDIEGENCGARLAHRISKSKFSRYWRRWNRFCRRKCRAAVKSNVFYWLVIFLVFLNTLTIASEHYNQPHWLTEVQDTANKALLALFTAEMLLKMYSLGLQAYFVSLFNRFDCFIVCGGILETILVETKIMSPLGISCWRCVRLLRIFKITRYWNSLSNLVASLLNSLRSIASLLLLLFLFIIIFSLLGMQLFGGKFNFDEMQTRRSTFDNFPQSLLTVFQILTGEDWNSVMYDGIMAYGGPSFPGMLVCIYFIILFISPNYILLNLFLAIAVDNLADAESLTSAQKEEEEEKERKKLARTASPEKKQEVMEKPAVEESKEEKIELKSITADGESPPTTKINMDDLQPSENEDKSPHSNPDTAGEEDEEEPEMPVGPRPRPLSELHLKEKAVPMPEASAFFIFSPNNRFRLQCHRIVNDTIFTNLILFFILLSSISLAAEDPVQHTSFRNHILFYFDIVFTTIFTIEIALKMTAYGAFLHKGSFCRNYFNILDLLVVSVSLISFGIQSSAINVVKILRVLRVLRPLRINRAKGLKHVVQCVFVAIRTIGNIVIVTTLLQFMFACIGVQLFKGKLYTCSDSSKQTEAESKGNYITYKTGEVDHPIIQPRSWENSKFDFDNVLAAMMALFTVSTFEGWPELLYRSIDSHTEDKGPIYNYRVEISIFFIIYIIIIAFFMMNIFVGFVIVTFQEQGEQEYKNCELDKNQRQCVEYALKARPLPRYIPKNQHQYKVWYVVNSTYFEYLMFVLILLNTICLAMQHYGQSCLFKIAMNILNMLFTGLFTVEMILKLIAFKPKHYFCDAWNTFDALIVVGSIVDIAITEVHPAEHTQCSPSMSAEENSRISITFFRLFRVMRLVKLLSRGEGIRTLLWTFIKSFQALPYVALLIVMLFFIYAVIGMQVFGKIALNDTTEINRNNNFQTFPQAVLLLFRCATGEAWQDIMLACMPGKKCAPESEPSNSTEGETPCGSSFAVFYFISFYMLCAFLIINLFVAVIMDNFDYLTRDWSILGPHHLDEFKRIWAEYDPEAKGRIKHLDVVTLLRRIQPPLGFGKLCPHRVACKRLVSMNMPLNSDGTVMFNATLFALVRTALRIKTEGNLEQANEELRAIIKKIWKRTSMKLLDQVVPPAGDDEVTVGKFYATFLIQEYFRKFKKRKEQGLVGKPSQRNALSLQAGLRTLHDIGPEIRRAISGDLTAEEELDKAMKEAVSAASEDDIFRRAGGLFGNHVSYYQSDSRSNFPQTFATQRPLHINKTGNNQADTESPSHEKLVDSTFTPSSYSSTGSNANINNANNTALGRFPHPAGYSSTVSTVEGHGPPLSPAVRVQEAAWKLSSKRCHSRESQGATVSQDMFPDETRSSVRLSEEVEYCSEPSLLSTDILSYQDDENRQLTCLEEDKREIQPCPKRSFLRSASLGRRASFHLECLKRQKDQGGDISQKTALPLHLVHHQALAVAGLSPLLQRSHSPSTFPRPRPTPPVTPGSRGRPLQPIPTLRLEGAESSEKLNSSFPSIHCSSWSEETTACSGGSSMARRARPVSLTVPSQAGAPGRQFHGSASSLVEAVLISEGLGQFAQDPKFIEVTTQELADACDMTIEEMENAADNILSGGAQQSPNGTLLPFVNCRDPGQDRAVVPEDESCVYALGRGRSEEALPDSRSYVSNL

[3] = molecular target: Voltage-gated inwardly rectifying potassium channel KCNH2 (Homo sapiens, UniProt Q12809); assay type: functional
Voltage-gated inwardly rectifying potassium channel KCNH2, sequence (Q12809 whole entry): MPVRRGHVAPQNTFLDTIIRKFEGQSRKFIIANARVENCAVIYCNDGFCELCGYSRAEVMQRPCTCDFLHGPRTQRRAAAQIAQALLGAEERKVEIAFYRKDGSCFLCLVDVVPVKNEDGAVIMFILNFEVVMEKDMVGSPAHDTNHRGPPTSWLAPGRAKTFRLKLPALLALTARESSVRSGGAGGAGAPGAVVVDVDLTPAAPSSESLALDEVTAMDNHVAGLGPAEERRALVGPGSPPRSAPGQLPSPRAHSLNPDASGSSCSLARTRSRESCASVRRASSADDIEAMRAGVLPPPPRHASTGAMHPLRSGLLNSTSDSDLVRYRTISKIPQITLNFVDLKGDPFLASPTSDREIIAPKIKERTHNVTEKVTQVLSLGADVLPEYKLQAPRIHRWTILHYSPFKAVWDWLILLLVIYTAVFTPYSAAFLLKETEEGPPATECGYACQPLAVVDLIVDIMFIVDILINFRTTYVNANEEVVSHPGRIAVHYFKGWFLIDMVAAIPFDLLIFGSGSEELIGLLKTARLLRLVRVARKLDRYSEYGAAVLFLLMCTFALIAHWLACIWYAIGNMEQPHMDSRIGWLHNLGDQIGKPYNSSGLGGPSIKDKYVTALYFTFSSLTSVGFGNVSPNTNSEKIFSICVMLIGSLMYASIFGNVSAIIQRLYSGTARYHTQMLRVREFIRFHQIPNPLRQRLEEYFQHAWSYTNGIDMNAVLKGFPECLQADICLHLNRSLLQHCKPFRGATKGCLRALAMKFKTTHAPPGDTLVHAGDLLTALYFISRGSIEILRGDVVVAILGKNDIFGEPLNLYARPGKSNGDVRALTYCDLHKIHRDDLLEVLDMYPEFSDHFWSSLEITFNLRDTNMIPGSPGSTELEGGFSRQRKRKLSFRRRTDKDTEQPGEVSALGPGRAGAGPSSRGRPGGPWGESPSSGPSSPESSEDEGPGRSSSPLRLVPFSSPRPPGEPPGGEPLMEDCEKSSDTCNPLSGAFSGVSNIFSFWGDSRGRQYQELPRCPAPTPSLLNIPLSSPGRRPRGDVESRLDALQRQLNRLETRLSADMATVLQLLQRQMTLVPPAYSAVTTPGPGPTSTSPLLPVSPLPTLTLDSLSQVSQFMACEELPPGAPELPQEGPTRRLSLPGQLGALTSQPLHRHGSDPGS

[4] = molecular target: T2, Alpha-1A adrenergic receptor (Homo sapiens, UniProt P35348); assay type: functional, cell-based
T2 sequence (P35348 whole entry): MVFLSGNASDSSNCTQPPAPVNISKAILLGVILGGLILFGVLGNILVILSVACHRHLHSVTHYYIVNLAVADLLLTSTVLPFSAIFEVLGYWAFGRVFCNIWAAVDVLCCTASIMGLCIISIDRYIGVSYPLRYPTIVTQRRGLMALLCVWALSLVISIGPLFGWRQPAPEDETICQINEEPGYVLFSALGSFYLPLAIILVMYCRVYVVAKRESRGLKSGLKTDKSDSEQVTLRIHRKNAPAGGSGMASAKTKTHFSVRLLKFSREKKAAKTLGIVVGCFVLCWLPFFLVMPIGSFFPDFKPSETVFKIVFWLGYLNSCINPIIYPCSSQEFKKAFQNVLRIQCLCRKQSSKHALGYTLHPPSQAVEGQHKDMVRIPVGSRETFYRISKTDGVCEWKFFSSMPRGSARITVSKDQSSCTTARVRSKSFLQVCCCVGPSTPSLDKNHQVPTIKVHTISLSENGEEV

[5] = molecular target: Kappa-type opioid receptor (Homo sapiens, UniProt P41145)
Kappa-type opioid receptor, sequence (P41145 whole entry): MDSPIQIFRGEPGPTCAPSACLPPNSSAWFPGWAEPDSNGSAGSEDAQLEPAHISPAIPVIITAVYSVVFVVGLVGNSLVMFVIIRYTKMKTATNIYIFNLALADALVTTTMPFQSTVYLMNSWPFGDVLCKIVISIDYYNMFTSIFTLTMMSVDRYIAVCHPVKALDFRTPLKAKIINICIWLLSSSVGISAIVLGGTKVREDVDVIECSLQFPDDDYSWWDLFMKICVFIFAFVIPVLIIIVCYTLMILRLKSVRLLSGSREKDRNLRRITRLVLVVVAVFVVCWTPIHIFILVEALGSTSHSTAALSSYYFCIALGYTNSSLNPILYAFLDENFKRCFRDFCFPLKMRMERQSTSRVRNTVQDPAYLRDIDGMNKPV

[6] = molecular target: T3, Prostaglandin G/H synthase 1 (Rattus norvegicus, UniProt Q63921); assay type: functional
T3 sequence (Q63921 whole entry): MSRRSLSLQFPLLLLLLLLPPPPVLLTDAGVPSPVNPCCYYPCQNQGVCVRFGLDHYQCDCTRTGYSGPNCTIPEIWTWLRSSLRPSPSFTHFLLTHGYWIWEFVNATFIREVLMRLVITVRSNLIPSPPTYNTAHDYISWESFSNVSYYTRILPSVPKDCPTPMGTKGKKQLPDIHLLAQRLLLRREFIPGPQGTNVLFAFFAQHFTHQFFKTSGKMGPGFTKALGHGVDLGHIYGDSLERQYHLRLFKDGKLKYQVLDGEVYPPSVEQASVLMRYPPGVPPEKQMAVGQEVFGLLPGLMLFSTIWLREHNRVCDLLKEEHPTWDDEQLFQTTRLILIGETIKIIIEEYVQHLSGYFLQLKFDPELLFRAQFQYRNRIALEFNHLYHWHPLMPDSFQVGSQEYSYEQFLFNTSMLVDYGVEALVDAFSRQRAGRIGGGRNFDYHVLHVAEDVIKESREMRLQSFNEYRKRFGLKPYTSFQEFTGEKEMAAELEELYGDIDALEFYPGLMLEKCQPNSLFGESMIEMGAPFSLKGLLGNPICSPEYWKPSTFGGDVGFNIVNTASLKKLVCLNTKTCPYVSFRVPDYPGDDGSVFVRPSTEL

[7] = molecular target: T4, Muscarinic acetylcholine receptor M2 (Homo sapiens, UniProt P08172); assay type: functional, cell-based
T4 sequence (P08172 whole entry): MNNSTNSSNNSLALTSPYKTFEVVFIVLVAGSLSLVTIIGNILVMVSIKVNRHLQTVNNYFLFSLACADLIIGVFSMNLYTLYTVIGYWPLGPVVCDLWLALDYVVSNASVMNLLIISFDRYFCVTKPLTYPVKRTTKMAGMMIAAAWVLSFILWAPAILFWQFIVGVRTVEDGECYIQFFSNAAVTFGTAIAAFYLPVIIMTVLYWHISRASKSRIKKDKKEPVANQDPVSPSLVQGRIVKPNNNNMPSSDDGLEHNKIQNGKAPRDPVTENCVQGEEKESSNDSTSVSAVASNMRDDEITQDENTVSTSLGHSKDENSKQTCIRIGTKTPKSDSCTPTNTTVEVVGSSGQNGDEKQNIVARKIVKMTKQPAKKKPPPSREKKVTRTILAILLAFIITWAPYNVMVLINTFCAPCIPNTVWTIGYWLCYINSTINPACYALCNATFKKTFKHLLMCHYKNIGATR

Thromboxane A2 receptor = molecular target: T5, Thromboxane A2 receptor (Homo sapiens, UniProt P21731)
T5 sequence (P21731 whole entry): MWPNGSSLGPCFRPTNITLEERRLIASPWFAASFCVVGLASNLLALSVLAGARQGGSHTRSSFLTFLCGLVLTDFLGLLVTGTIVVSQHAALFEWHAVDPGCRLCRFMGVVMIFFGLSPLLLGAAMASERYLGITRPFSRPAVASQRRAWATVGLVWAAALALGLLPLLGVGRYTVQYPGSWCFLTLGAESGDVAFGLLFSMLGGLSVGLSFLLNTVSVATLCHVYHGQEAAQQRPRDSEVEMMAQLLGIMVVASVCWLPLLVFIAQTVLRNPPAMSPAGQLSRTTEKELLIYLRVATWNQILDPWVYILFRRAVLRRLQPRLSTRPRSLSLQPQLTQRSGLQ
Note: assay procedure not described here.

Row | SMILES | AC50 [1] | AC50 [2] | AC50 [3] | AC50 [4] | AC50 [5] | AC50 [6] | AC50 [7] | AC50 (Thromboxane A2 receptor)
1 | Clc1ccc(CCC(Cn2ccnc2)Sc2c(Cl)cccc2Cl)cc1 (centres undefined) [BUTOCONAZOLE] | > 30 µM | 17 µM | 5.9 µM | > 30 µM | 1.8 µM | 14 µM | > 30 µM | > 30 µM
2 | CCc1nc(N)nc(N)c1-c1ccc(Cl)cc1 [PYRIMETHAMINE] | > 30 µM | > 10 µM | 0.649 µM | > 30 µM | > 30 µM | > 10 µM | > 10 µM | > 10 µM
3 | CCC(=O)O[C@](Cc1ccccc1)(c1ccccc1)[C@H](C)CN(C)C [PROPOXYPHENE] | > 30 µM | > 10 µM | 1.74 µM | > 30 µM |  | > 30 µM | > 10 µM | > 30 µM
4 | Cc1ccnc2c1NC(=O)c1cccnc1N2C1CC1 [NEVIRAPINE] | > 30 µM | > 10 µM | > 30 µM | > 30 µM | > 10 µM | > 30 µM | > 10 µM | > 30 µM
5 | O=C1CC[C@@H](C(=O)N2CSC[C@H]2C(=O)O)N1 [PIDOTIMOD] ([pGlu]-[Thz]-OH) | > 30 µM | > 30 µM | > 30 µM | > 30 µM | > 30 µM | > 30 µM | > 30 µM | > 30 µM
6 | CCOC(=O)c1ncn2c1CN(C)C(=O)c1cc(F)ccc1-2 [FLUMAZENIL] | > 30 µM | > 30 µM | > 30 µM | > 30 µM | > 30 µM | > 30 µM | > 30 µM | > 30 µM
7 | Cc1cc(=O)n(-c2ccccc2)n1C [ANTIPYRINE] | > 30 µM | > 10 µM | > 30 µM | > 30 µM | > 10 µM | > 30 µM | > 10 µM | > 30 µM
8 | CCOC(=O)c1ccc(C#Cc2ccc3c(c2)C(C)(C)CCS3)nc1 [TAZAROTENE] | > 30 µM | > 10 µM | > 30 µM | > 30 µM | > 10 µM | > 30 µM | > 10 µM | > 30 µM
9 | COc1ccc(CN2CCN(C(c3ccc(F)cc3)c3ccc(F)cc3)CC2)c(OC)c1OC [LOMERIZINE] | > 30 µM | 2.4 µM | 0.45 µM | > 30 µM | 12 µM | > 30 µM | 24 µM | > 30 µM
10 | Oc1ccc(CCNCCCCCCNCCc2ccccc2)cc1O [DOPEXAMINE] | > 30 µM | > 30 µM | 2.9 µM | > 30 µM | 4.3 µM | > 30 µM | > 30 µM | > 30 µM
11 | COc1cc(C(=O)NC2CCCNC2)cc(OC)c1OC (centres undefined) [TROXIPIDE] | > 30 µM | > 30 µM | > 30 µM | > 30 µM | 16 µM | > 10 µM | > 30 µM | > 30 µM
12 | CC(C(=O)O)c1ccc2c(c1)CC(=O)c1ccccc1S2 (centres undefined) [ZALTOPROFEN] | > 30 µM | > 30 µM | > 30 µM | > 30 µM | 24 µM | > 30 µM | > 30 µM | > 30 µM
13 | NNC(=O)c1ccncc1 [ISONIAZID] | > 30 µM | > 30 µM | > 30 µM | > 30 µM | > 30 µM | > 30 µM | > 30 µM | > 30 µM
14 | CC(c1cc2ccccc2s1)N(O)C(N)=O (centres undefined) [ZILEUTON] | > 10 µM | > 10 µM | > 30 µM | > 30 µM | > 10 µM | > 30 µM | > 10 µM | > 10 µM
15 | CCc1cc2c(s1)-n1c(C)nnc1CN=C2c1ccccc1Cl [ETIZOLAM] | > 30 µM | > 30 µM | > 30 µM | > 30 µM | 2.5 µM | > 30 µM | > 30 µM | > 30 µM
16 | CC(C)(C)NCC(O)c1ccccc1Cl (centres undefined) [TULOBUTEROL] |  | > 30 µM | > 30 µM | > 30 µM | > 30 µM | > 30 µM | > 30 µM | > 30 µM
17 | O=C(O)c1ccc(NC(=O)[C@H](Cc2ccc(O)cc2)NC(=O)c2ccccc2)cc1 [BENTIROMIDE] | > 10 µM | > 10 µM | > 30 µM |  | > 10 µM | > 10 µM | > 10 µM | > 10 µM
18 | O=C(c1cc(Cc2n[nH]c(=O)c3ccccc23)ccc1F)N1CCN(C(=O)C2CC2)CC1 [OLAPARIB] | > 30 µM | > 10 µM | > 30 µM |  | > 10 µM | > 30 µM | > 10 µM | > 30 µM
19 | CN1CCN=C(c2ccccc2)c2cc(Cl)ccc21 [MEDAZEPAM] |  | > 30 µM |  | > 30 µM | 0.99 µM | 16 µM | > 30 µM | > 30 µM
20 | COc1ccc(C2C(=O)c3ccccc3C2=O)cc1 [ANISINDIONE] | > 10 µM | > 10 µM | > 30 µM |  | > 10 µM | 13 µM | > 10 µM | > 10 µM
21 | COc1cc(N)c(Cl)cc1C(=O)NC1CCN(CCCOc2ccc(F)cc2)CC1OC (centres undefined) [CISAPRIDE] | > 30 µM | > 10 µM |  | > 30 µM | 16.7 µM | > 30 µM | > 10 µM | 22.9 µM
22 | C[C@@H]1C[C@H]2[C@@H]3CCC4=CC(=O)C=C[C@]4(C)[C@@]3(F)[C@@H](O)C[C@]2(C)[C@@]1(O)C(=O)CO [DEXAMETHASONE] | > 30 µM | > 10 µM | > 30 µM |  | > 10 µM | > 30 µM | > 10 µM | > 30 µM
23 | CCC1(CCC(C)C)C(=O)NC(=O)NC1=O [AMOBARBITAL] | > 10 µM | > 10 µM | > 30 µM |  | > 10 µM | > 10 µM | > 10 µM | > 10 µM
